Measurements published in patent US12522576B2, “Polymorphs of D9-THC naphthoylester” (priority 2019, dated 2026).
≈ marks a conversion by molar mass, not a printed value. Entries after “also recorded” stand apart in the source; their conditions may differ. Read-outs that look alike come from different tables or passages of the source.

Tests used:
[1] = Competitive ripening (relative thermodynamic stability of non-solvated forms); conditions: for Nature (thermodynamic stability of crystal form): Table 6 summary
[2] = D9 solubility in the liquors at isolation temperature; format: physicochemical; conditions: organic solvent or mixture, thermodynamic from solid
Protocol: At the end of each experiment, suspensions were equilibrated at the isolation temperature (25 or 5° C.) for at least 18 hours and the solids and liquors separated by centrifugation at the isolation temperature. The Exo/D9/D8 ratio (Exo-D9-THC-naphthoylester impurity/D9-THC-naphthoylester/D8-THC-naphthoylester) was determined in both the isolated solids and the liquors, from which the % Exo-depletion in the isolated solids was calculated. Several solids were also isolated at elevated temperatures to assess the impact of the isolation temperature on Exo-impurity depletion.
In addition, the solubility of D9 in the liquors was determined in most of the explored solvents and used to estimate the yield.

[3] = Experiment No. 10, n-BuOH, 25 °C
[4] = Experiment No. 14, Toluene/EtOH (1:9), 5 °C
[5] = Experiment No. 16, n-BuOH, 5 °C

Compound: CCCCCc1cc(OC(=O)c2ccc3ccccc3c2)c2c(c1)OC(C)(C)[C@@H]1CCC(C)=C[C@@H]21 [Form C, (6aR,10aR)-6a,7,8,10a-tetrahydro-6,6,9-trimethyl-3-pentyl-6H-dibenzo[b,d]pyran-1-yl ester]
- Nature (thermodynamic stability of crystal form) [1]: Metastable
- solubility ([2]; crystallisation liquors over suspended solid, 5 °C, batch 5, MeCN/MIBK (8:2), seed D, heat T 50, isolation T 5, SP 6, 20.0 mL/g): 21.6 mg/mL (≈ 46.1 mM)
- solubility ([2]; crystallisation liquors over suspended solid, 5 °C, batch 5, MeCN/MeOH (9:1), seed D/G, heat T 50, isolation T 5, SP 6, 30.0 mL/g): 8.4 mg/mL (≈ 17.9 mM)
- solubility ([2]; crystallisation liquors over suspended solid, 25 °C, batch 5, MeCN, seed D, heat T 50, isolation T 25, SP 5, 30.0 mL/g): 8.6 mg/mL (≈ 18.4 mM)
- solubility ([2]; crystallisation liquors over suspended solid, 25 °C, batch 5, MeCN/MIBK (8:2), seed D, heat T 50, isolation T 25, SP 2, 3.2 mL/g): 25.5 mg/mL (≈ 54.4 mM)
- solubility ([2]; crystallisation liquors over suspended solid, 25 °C, batch 5, MeCN/MIBK (8:2), seed D, heat T 50, isolation T 25, SP 5, 20.0 mL/g): 22.3 mg/mL (≈ 47.6 mM)
- solubility ([2]; crystallisation liquors over suspended solid, 25 °C, batch 5, MeCN/MeOH (9:1), seed D/G, heat T 50, isolation T 25, SP 5, 30.0 mL/g): 8.7 mg/mL (≈ 18.6 mM)

Compound: CCCCCc1cc(OC(=O)c2ccc3ccccc3c2)c2c(c1)OC(C)(C)[C@@H]1CCC(C)=C[C@@H]21 [A, B, C, E, G]
- Form Isolated 1-3 d ([1]; Experiment No. 7, Acetone/MeOH (1:3), 25 °C): E/G
- Form Isolated 1-3 d ([1]; Experiment No. 8, Toluene/EtOH (1:9), 25 °C): G/E
- Form Isolated 1-3 d [1, 3]: B/G
- Form Isolated 4-9 d [1, 3]: B/G
- Form Isolated 4-9 d [1, 4]: B/G
- Form Isolated 26-29 d [1, 4]: G/B(tr)
- Form Isolated 4-9 d [1, 5]: B/G
- Form Isolated 26-29 d [1, 5]: B/G

Compound: CCCCCc1cc(OC(=O)c2ccc3ccccc3c2)c2c(c1)OC(C)(C)[C@@H]1CCC(C)=C[C@@H]21 [Form G, (6aR,10aR)-6a,7,8,10a-tetrahydro-6,6,9-trimethyl-3-pentyl-6H-dibenzo[b,d]pyran-1-yl ester]
- Nature (thermodynamic stability of crystal form) [1]: Metastable
- solubility ([2]; crystallisation liquors over suspended solid, 25 °C, batch 5, Anisole/MeOH (1:9), seed E/G, heat T 50, isolation T 25, 9.4 mL/g, SP 3): 8.1 mg/mL (≈ 17.3 mM)
- solubility ([2]; crystallisation liquors over suspended solid, 25 °C, batch 5, Cyclohexanone/MeOH (1:3), seed G, heat T 40, isolation T 25, 9.4 mL/g, SP 3): 34.4 mg/mL (≈ 73.4 mM)
- solubility ([2]; crystallisation liquors over suspended solid, 25 °C, batch 5, EtOAc/EtOH (1:9), seed G/H, heat T 55, isolation T 25, 5.0 mL/g, SP 15, Exp 53): 17.8 mg/mL (≈ 38 mM)
- solubility ([2]; crystallisation liquors over suspended solid, 25 °C, batch 5, EtOAc/MeOH (1:2), seed H, heat T 55, isolation T 25, 8.0 mL/g, SP 21, Exp 50): 18.5 mg/mL (≈ 39.5 mM)
- solubility ([2]; crystallisation liquors over suspended solid, 25 °C, batch 5, EtOAc/MeOH (1:3), seed G/H, heat T 55, isolation T 25, 10.0 mL/g, SP 15, Exp 55): 9.7 mg/mL (≈ 20.7 mM)
- solubility ([2]; crystallisation liquors over suspended solid, 25 °C, batch 5, MEK/MeOH (3:7), seed G/H, heat T 55, isolation T 25, 5.0 mL/g, SP 15, Exp 51): 23.2 mg/mL (≈ 49.5 mM)
- solubility ([2]; crystallisation liquors over suspended solid, 25 °C, batch 5, Toluene/MeOH (1:9), seed E/G, heat T 50, isolation T 25, 9.6 mL/g, SP 3): 6.5 mg/mL (≈ 13.9 mM)
- solubility ([2]; crystallisation liquors over suspended solid, 25 °C, batch 5, Toluene/MeOH (5:95), seed H, heat T 50, isolation T 25, 10.0 mL/g, SP 20, Exp 44): 3.4 mg/mL (≈ 7.26 mM)
- solubility ([2]; crystallisation liquors over suspended solid, 25 °C, batch 5, p-Xylene/MeOH (1:9), seed E/G, heat T 50, isolation T 25, 19.5 mL/g, SP 3): 7.5 mg/mL (≈ 16 mM)
- solubility ([2]; liquors of the equilibrated crystallisation suspension, 25 °C, batch 5, Cyclohexanone/MeOH (1:3), seed G, heat T 25, isolation T 25, 30.0 mL/g, SP 7): 29.3 mg/mL (≈ 62.5 mM)

Compound: CCCCCc1cc(OC(=O)c2ccc3ccccc3c2)c2c(c1)OC(C)(C)[C@@H]1CCC(C)=C[C@@H]21 [G, H]
- Form Isolated 1-3 d ([1]; Experiment No. 5, Toluene/EtOH (1:9), 50 °C): H/G(tr)
- Form Isolated 1-3 d ([1]; Experiment No. 6, n-BuOH, 50 °C): H/G(tr)
- Form Isolated 1-3 d ([1]; Experiment No. 11, Toluene/EtOH (1:9), 25 °C): G/H
- Form Isolated 1-3 d ([1]; Experiment No. 12, Heptane, 25 °C): H/G

Compound: CCCCCc1cc(OC(=O)c2ccc3ccccc3c2)c2c(c1)OC(C)(C)[C@@H]1CCC(C)=C[C@@H]21 [E, G]
- Form Isolated 4-9 d ([1]; Experiment No. 15, Heptane, 5 °C): G/B

Compound: CCCCCc1cc(OC(=O)c2ccc3ccccc3c2)c2c(c1)OC(C)(C)[C@@H]1CCC(C)=C[C@@H]21 [Form H, (6aR,10aR)-6a,7,8,10a-tetrahydro-6,6,9-trimethyl-3-pentyl-6H-dibenzo[b,d]pyran-1-yl ester]
- Relative thermodynamic stability ([1]; at 5° C., ripening incomplete within 29 days): likely the most-stable form
- Relative thermodynamic stability ([1]; between 25-60° C., non-solvate forming solvents): most stable non-solvated crystal form; also recorded: thermodynamically most-stable form
- solubility ([2]; crystallisation liquors over suspended solid, 5 °C, batch 5, Toluene/MeOH (3:7), seed G, heat T 25, isolation T 5, 10.0 mL/g, SP 11): 71.4 mg/mL (≈ 152 mM)
- solubility ([2]; crystallisation liquors over suspended solid, 25 °C, batch 5, EtOAC/EtOH (2:8), seed H, heat T 50, isolation T 25, 8.0 mL/g, SP 17, Exp 47): 36.2 mg/mL (≈ 77.2 mM)
- solubility ([2]; crystallisation liquors over suspended solid, 25 °C, batch 5, Toluene/EtOH (1:9), seed G/H, heat T 55, isolation T 25, 9.9 mL/g, SP 16, Exp 46): 11.1 mg/mL (≈ 23.7 mM)
- solubility ([2]; crystallisation liquors over suspended solid, 25 °C, batch 5, Toluene/EtOH (1:9), seed H, heat T 40, isolation T 25, 10.0 mL/g, SP 19, Exp 54): 19.6 mg/mL (≈ 41.8 mM)
- solubility ([2]; crystallisation liquors over suspended solid, 25 °C, batch 5, Toluene/EtOH (2:8), seed H, heat T 25, isolation T 25, 5.0 mL/g, SP 18, Exp 52): 36.2 mg/mL (≈ 77.2 mM)
- solubility ([2]; crystallisation liquors over suspended solid, 25 °C, batch 5, Toluene/MeOH (1:9), seed H, heat T 50, isolation T 25, 15.0 mL/g, SP 17, Exp 48): 6.8 mg/mL (≈ 14.5 mM)
- solubility ([2]; crystallisation liquors over suspended solid, 25 °C, batch 5, Toluene/MeOH (2:8), seed H, heat T 50, isolation T 25, 6.0 mL/g, SP 17, Exp 41): 25.1 mg/mL (≈ 53.6 mM)
- solubility ([2]; crystallisation liquors over suspended solid, 25 °C, batch 5, Toluene/MeOH (3:7), seed G, heat T 25, isolation T 25, 5.5 mL/g, SP 7): 69.9 mg/mL (≈ 149 mM)
- solubility ([2]; crystallisation liquors over suspended solid, 25 °C, batch 5, Toluene/MeOH (3:7), seed G, heat T 25, isolation T 25, 8.0 mL/g, SP 7): 80.2 mg/mL (≈ 171 mM)
- solubility ([2]; crystallisation liquors over suspended solid, 25 °C, batch 5, Toluene/MeOH (3:7), seed G, heat T 25, isolation T 25, 10.0 mL/g, SP 7): 64.7 mg/mL (≈ 138 mM)
- solubility ([2]; liquors of the equilibrated crystallisation suspension, 5 °C, Toluene/MeOH (3:7), isolation 5 °C, SP 11, 10.0 mL/g, read-out: D9 Solubility at Isolation T): 71.4 mg/mL (≈ 152 mM)
- solubility ([2]; liquors of the equilibrated crystallisation suspension, 25 °C, EtOAC/EtOH (2:8), isolation 25 °C, SP 17, 8.0 mL/g, read-out: D9 Solubility at Isolation T): 36.2 mg/mL (≈ 77.2 mM)
- solubility ([2]; liquors of the equilibrated crystallisation suspension, 25 °C, EtOAc/MeOH (1:3), isolation 25 °C, SP 21, 10.0 mL/g, read-out: D9 Solubility at Isolation T): 8.9 mg/mL (≈ 19 mM)
- solubility ([2]; liquors of the equilibrated crystallisation suspension, 25 °C, Toluene/EtOH (1:9), isolation 25 °C, SP 16, 9.9 mL/g, read-out: D9 Solubility at Isolation T): 11.1 mg/mL (≈ 23.7 mM)
- solubility ([2]; liquors of the equilibrated crystallisation suspension, 25 °C, Toluene/EtOH (1:9), isolation 25 °C, SP 19, 10.0 mL/g, read-out: D9 Solubility at Isolation T): 19.6 mg/mL (≈ 41.8 mM)
- solubility ([2]; liquors of the equilibrated crystallisation suspension, 25 °C, Toluene/EtOH (2:8), isolation 25 °C, SP 18, 5.0 mL/g, read-out: D9 Solubility at Isolation T): 36.2 mg/mL (≈ 77.2 mM)
- solubility ([2]; liquors of the equilibrated crystallisation suspension, 25 °C, Toluene/MeOH (1:9), isolation 25 °C, SP 17, 15.0 mL/g, read-out: D9 Solubility at Isolation T): 6.8 mg/mL (≈ 14.5 mM)
- solubility ([2]; liquors of the equilibrated crystallisation suspension, 25 °C, Toluene/MeOH (2:8), isolation 25 °C, SP 17, 6.0 mL/g, read-out: D9 Solubility at Isolation T): 25.1 mg/mL (≈ 53.6 mM)
- solubility ([2]; liquors of the equilibrated crystallisation suspension, 25 °C, Toluene/MeOH (3:7), isolation 25 °C, SP 7, 5.5 mL/g, read-out: D9 Solubility at Isolation T): 69.9 mg/mL (≈ 149 mM)
- solubility ([2]; liquors of the equilibrated crystallisation suspension, 25 °C, Toluene/MeOH (3:7), isolation 25 °C, SP 7, 8.0 mL/g, read-out: D9 Solubility at Isolation T): 80.2 mg/mL (≈ 171 mM)
- solubility ([2]; liquors of the equilibrated crystallisation suspension, 25 °C, Toluene/MeOH (3:7), isolation 25 °C, SP 7, 10.0 mL/g, read-out: D9 Solubility at Isolation T): 64.7 mg/mL (≈ 138 mM)
- solubility ([2]; liquors of the equilibrated crystallisation suspension, 25 °C, batch 5, EtOAc/MeOH (1:3), seed H, heat T 55, isolation T 25, 10.0 mL/g, SP 21, Exp 34): 8.9 mg/mL (≈ 19 mM)

Compound: CCCCCc1cc(OC(=O)c2ccc3ccccc3c2)c2c(c1)OC(C)(C)[C@@H]1CCC(C)=C[C@@H]21 [Form A, (6aR,10aR)-6a,7,8,10a-tetrahydro-6,6,9-trimethyl-3-pentyl-6H-dibenzo[b,d]pyran-1-yl ester]
- Nature (thermodynamic stability of crystal form) [1]: Metastable

Compound: CCCCCc1cc(OC(=O)c2ccc3ccccc3c2)c2c(c1)OC(C)(C)[C@@H]1CCC(C)=C[C@@H]21 [B, G, H]
- Form Isolated 12 d ([1]; Experiment No. 17, Toluene/EtOH (1:9), 5 °C): G/H
- Form Isolated 12 d ([1]; Experiment No. 18, Heptane, 5 °C): H/B(tr)
- Form Isolated 12 d ([1]; Experiment No. 19, n-BuOH, 5 °C): B/H
